{
  "source": "patent US6380463B1",
  "about": "“Inducible herbicide resistance” (priority 1995, dated 2002)",
  "key": {"alcA/alcR system [1]": {"system": "alcA/alcR system", "test": "non-solvent chemical treatments, induction of the alcA/alcR switch", "format": "in vivo", "settings": "non-solvent chemical treatment"}, "alcA/alcR system [2]": {"system": "alcA/alcR system", "test": "hydroponic seedling system (root drenching), induced reporter gene expression", "format": "in vivo", "settings": "FIG. 2", "from_the_text": "(§1) 3. We have tested the specificity of alcA/alcR system with a range of solvents used in agronomic practice."}, "alcA/alcR system [3]": {"system": "alcA/alcR system", "settings": "applied as a foliar spray, FIG. 3", "from_the_text": "as §1\nFIG. 3 illustrates the levels of induced reporter gene activity when the chemicals listed in Table 1 were applied as a foliar spray;"}, "[4]": {"system": "Brassica napus var Westar", "test": "kill curve on glyphosate, oil seed rape growing tip plus two leaves in MS medium", "format": "in vivo", "method": "(§2) Kill Curves for Tobacco var Samsun and Brassica napus var Westar on glyphosate\n(§3) Both species were tested on a range of glyphosate concentrations by inserting, in the case of tobacco a 5-6 mm stem segment carrying a leaf node and in the case of oil seed rape the growing tip plus two leaves into MS medium containing glyphosate at […] glyphosate isopropylamine salt."}, "Tobacco var Samsun": {"system": "Tobacco var Samsun", "test": "kill curve on glyphosate, tobacco stem segment in MS medium", "format": "in vivo", "method": "as §2, §3"}, "[5]": {"system": "5-enol-pyruvylshikimate-3-phosphate (EPSP) synthase", "test": "EPSPS assay in plant extracts (14C-labelled phosphoenol pyruvate, HPLC)", "format": "biochemical", "method": "Assays for 5-enol-pyruvylshikimate-3-phosphate (EPSP) synthase activity in plant extracts were carried out (1) by following the disappearance of the phosphoenol pyruvate substrate (as described by Rubin, J. L., Gaines, C. G and Jensen, R. A., in Plant Physiol (1984 75, 839-845) or (2) by conducting the assay in the reverse direction and coupling to pyruvate kinase and lactate dehydrogenase (as described by Mousdale D. M. and Coggins J. R. in Planta (1984) 160, 78-83) or (3) by using 14(-labelled phosphoenol pyruvate as substrate and detecting the formation of radioactive EPSP by HPLC on an anion exchange column and detecting using a flow-through radioactivity detector as described by Della-Cioppa et al in Proc. Nat. Acad. Sci. (USA) (1986), 83, 6873-6877."}},
  "data": [
    {"compound": "C=C", "note": "[ethylene]", "values": [
      {"measurement": "induction of the alcA/alcR system", "setting": "alcA/alcR system [1]", "value": "failed to induce"}
    ]},
    {"compound": "CC1=CC(=O)CC(C)(C)C1(O)/C=C/C(C)=C\\C(=O)O", "note": "(stereo not shown) [absisic acid]", "values": [
      {"measurement": "induction of the alcA/alcR system", "setting": "alcA/alcR system [1]", "value": "failed to induce"}
    ]},
    {"compound": "auxin", "values": [
      {"measurement": "induction of the alcA/alcR system", "setting": "alcA/alcR system [1]", "value": "failed to induce"}
    ]},
    {"compound": "O=C(O)c1ccccc1O", "note": "[salicylic acid]", "values": [
      {"measurement": "induction of the alcA/alcR system", "setting": "alcA/alcR system [1]", "value": "failed to induce"}
    ]},
    {"compound": "CCC(C)O", "note": "(stereo not shown) [butan-2-ol]", "values": [
      {"measurement": "levels of induced reporter gene expression", "setting": "alcA/alcR system [2]", "value": "high levels of induced reporter gene expression"}
    ]},
    {"compound": "CCO", "note": "[ethanol]", "values": [
      {"measurement": "levels of induced reporter gene expression", "setting": "alcA/alcR system [2]", "value": "high levels of induced reporter gene expression"},
      {"measurement": "levels of induced reporter gene activity", "setting": "alcA/alcR system [3]", "value": "high levels of induced reporter gene activity"}
    ]},
    {"compound": "C=C1C[C@]23C[C@@]1(O)CC[C@H]2[C@@]12C=C[C@H](O)[C@@](C)(C(=O)O1)[C@H]2[C@@H]3C(=O)O", "note": "[gibberelic acid]", "values": [
      {"measurement": "induction of the alcA/alcR system", "setting": "alcA/alcR system [1]", "value": "failed to induce"}
    ]},
    {"compound": "O=C1CCCCC1", "note": "[cyclohexanone]", "values": [
      {"measurement": "levels of induced reporter gene expression", "setting": "alcA/alcR system [2]", "value": "high levels of induced reporter gene expression"}
    ]},
    {"compound": "O=C(O)CNCP(=O)(O)O", "note": "[glyphosate, N-phosphonomethyl-glycine]", "values": [
      {"measurement": "growth scored after two weeks", "setting": "[4]; 0.005 mM in MS medium", "value": "No stem growth, 1 new leaf, roots to 1 cm"},
      {"measurement": "growth scored after two weeks", "setting": "[4]; 0.011 mM in MS medium", "value": "No stem growth, no new leaves, roots ˜ 0.5 cm"},
      {"measurement": "growth scored after two weeks", "setting": "[4]; 0.0275 mM in MS medium", "value": "No stem growth, no new leaves, roots ˜ 2 mm"},
      {"measurement": "growth scored after two weeks", "setting": "[4]; 0.055 mM in MS medium", "value": "No growth in any organ, ends of stem blackened"},
      {"measurement": "growth scored after two weeks", "setting": "Tobacco var Samsun; 0.005 mM in MS medium", "value": "No growth"},
      {"measurement": "growth scored after two weeks", "setting": "Tobacco var Samsun; 0.01 mM in MS medium", "value": "No growth"},
      {"measurement": "growth scored after two weeks", "setting": "Tobacco var Samsun; 0.011 mM in MS medium", "value": "No growth"},
      {"measurement": "growth scored after two weeks", "setting": "Tobacco var Samsun; 0.0275 mM in MS medium", "value": "No growth"},
      {"measurement": "growth scored after two weeks", "setting": "Tobacco var Samsun; 0.055 mM in MS medium", "value": "No growth"},
      {"measurement": "inhibition of EPSP synthase activity", "setting": "[5]", "value": "relatively resistant to inhibition"}
    ]}
  ]
}
